Key:
Assay in all cases: Kinase profiling in a biochemical assay panel (mobility shift assays and ELISA), %-inhibition at 1 μM; selectivity entropy
[1] = target: panel of more than 300 wild-type and mutant kinases (313 kinase panel) (Homo sapiens, UniProt P05771); conditions: kinase PKCβ1; 1 μM
[2] = target: panel of more than 300 wild-type and mutant kinases (313 kinase panel) (Homo sapiens, UniProt P10721, T670I)
[3] = target: panel of more than 300 wild-type and mutant kinases (313 kinase panel) (Homo sapiens, UniProt P27448)
[4] = target: panel of more than 300 wild-type and mutant kinases (313 kinase panel) (Homo sapiens, UniProt P29317); conditions: kinase EPHA2; compound at 1 μM
[5] = target: panel of more than 300 wild-type and mutant kinases (313 kinase panel) (Homo sapiens, UniProt P30291); conditions: kinase WEE1; compound at 1 μM
[6] = target: T1, panel of more than 300 wild-type and mutant kinases (313 kinase panel) (Homo sapiens, UniProt P41743); conditions: kinase PKCι; 1 μM
T1 sequence (P41743 1-596): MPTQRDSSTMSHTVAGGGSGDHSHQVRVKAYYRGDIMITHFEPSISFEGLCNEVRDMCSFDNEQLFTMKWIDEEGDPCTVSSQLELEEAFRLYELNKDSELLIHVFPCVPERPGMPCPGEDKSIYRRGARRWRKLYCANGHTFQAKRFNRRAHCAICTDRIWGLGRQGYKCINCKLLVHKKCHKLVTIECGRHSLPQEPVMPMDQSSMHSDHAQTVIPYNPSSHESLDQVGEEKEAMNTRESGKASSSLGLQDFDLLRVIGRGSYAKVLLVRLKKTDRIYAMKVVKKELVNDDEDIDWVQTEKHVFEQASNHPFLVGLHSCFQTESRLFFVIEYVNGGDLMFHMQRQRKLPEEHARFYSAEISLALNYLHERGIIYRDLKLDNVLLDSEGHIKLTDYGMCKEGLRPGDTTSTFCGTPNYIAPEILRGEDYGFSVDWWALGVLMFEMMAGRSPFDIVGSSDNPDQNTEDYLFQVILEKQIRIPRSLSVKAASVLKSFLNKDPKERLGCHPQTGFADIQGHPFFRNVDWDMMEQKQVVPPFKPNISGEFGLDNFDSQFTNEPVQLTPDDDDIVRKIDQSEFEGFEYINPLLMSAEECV

[7] = target: panel of more than 300 wild-type and mutant kinases (313 kinase panel) (Homo sapiens, UniProt P42684); conditions: kinase ARG; 1 μM compound
[8] = target: panel of more than 300 wild-type and mutant kinases (313 kinase panel) (Homo sapiens, UniProt Q05655); conditions: kinase PKCδ; 1 μM
[9] = target: T2, panel of more than 300 wild-type and mutant kinases (313 kinase panel) (Homo sapiens, UniProt Q96L34); conditions: kinase MARK4; compound at 1 μM
T2 sequence (Q96L34 1-752): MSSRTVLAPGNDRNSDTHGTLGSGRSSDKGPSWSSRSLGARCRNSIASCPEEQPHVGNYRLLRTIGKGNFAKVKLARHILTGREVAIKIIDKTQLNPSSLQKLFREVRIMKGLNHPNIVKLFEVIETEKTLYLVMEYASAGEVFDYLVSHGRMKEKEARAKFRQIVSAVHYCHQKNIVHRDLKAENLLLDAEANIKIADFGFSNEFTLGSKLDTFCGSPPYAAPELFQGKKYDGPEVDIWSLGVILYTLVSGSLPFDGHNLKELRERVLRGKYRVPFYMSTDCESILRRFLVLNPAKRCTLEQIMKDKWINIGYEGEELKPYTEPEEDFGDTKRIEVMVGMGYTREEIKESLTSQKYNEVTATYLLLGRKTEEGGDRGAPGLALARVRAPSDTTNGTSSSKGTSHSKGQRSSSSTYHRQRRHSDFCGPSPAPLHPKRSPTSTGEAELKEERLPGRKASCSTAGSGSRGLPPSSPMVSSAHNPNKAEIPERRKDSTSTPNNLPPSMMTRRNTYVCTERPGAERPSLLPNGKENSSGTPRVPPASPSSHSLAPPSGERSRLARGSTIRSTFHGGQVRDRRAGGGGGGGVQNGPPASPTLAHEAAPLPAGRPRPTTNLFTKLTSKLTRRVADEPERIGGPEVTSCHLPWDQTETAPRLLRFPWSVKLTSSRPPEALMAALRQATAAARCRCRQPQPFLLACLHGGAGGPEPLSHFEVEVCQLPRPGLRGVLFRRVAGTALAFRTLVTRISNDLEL

[10] = target: panel of more than 300 wild-type and mutant kinases (313 kinase panel) (Homo sapiens, UniProt Q9NQU5); conditions: kinase PAK6; 1 μM
[11] = target: panel of more than 300 wild-type and mutant kinases (313 kinase panel) (Homo sapiens, UniProt Q9Y5S2); conditions: kinase MRCKβ; 1 μM
[12] = target: panel of more than 300 wild-type and mutant kinases (313 kinase panel) (Homo sapiens, UniProt Q9Y6E0); conditions: kinase MST3; 1 μM
[13] = kinase KIT(T670I), compound at 1 μM

panel of more than 300 wild-type and mutant kinases (313 kinase panel) (Homo sapiens, UniProt P30291), sequence (P30291 whole entry, change not shown): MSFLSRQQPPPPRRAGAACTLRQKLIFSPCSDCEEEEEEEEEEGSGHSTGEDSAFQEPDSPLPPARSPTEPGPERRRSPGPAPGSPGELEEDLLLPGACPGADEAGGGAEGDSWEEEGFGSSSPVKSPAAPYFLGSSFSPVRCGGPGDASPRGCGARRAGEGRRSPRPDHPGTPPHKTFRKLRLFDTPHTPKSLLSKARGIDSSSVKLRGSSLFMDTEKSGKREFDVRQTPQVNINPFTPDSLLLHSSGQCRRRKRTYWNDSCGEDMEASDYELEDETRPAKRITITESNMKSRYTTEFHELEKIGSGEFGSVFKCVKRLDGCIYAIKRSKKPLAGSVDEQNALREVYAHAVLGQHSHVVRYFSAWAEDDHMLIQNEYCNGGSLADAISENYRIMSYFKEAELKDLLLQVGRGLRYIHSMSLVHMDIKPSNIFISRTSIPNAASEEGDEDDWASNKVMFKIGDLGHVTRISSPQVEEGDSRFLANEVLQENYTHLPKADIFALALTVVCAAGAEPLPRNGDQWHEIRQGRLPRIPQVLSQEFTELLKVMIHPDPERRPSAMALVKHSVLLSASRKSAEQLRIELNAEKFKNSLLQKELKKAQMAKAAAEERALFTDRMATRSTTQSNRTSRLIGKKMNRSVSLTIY
panel of more than 300 wild-type and mutant kinases (313 kinase panel) (Homo sapiens, UniProt P27448), sequence (P27448 whole entry, change not shown): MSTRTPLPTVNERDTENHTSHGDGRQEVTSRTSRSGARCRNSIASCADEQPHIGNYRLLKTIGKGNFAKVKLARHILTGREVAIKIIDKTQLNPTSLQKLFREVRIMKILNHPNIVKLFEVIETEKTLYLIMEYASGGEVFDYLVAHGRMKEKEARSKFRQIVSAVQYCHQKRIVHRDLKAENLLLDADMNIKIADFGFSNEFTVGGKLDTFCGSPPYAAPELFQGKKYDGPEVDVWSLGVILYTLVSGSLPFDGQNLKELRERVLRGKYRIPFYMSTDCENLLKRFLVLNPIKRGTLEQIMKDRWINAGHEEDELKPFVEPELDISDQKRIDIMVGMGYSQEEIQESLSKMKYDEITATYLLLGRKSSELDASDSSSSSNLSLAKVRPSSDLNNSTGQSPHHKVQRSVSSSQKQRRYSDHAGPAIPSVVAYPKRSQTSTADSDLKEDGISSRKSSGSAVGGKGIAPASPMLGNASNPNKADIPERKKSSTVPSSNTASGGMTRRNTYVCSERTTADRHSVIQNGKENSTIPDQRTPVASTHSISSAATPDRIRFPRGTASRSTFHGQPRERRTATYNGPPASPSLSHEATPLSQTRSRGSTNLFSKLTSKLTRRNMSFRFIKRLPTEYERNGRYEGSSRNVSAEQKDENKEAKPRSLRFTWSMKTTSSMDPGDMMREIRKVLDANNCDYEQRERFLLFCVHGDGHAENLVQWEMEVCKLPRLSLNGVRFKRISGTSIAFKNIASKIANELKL
panel of more than 300 wild-type and mutant kinases (313 kinase panel) (Homo sapiens, UniProt P10721, T670I), sequence (P10721 26-976 T670I): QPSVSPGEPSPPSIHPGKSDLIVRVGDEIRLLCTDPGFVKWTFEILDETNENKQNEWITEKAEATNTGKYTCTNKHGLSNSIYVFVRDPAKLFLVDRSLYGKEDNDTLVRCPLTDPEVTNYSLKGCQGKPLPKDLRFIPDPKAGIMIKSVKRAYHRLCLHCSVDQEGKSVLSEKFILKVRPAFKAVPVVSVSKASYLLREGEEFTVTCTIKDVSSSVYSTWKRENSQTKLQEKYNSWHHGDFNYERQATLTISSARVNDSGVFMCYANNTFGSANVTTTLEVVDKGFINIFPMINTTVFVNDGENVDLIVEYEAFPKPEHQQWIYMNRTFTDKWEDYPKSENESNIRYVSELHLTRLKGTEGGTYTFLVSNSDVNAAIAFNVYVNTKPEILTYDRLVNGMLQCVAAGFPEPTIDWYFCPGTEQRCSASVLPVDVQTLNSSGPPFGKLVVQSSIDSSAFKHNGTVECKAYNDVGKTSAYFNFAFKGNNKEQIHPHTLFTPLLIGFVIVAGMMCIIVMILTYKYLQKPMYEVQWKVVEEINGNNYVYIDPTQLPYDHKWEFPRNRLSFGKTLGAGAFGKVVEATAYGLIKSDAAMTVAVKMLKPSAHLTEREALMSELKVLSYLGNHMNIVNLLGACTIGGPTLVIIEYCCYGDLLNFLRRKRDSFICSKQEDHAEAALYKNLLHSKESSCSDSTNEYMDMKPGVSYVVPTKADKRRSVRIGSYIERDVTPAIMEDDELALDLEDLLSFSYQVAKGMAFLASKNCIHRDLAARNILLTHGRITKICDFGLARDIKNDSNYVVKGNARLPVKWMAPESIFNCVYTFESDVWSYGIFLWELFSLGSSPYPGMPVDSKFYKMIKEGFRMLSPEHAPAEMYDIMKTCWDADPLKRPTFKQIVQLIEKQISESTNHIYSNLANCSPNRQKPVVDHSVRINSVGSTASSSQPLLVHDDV

SMILES | %-inhibition of PKCβ1 [1] [%] | %-inhibition of KIT(T670I) ([2]; 1 µM) [%] | %-inhibition of MARK3 ([3]; 1 µM) [%] | %-inhibition of EPHA2 [4] [%] | %-inhibition of WEE1 [5] [%] | %-inhibition of PKCι [6] [%] | %-inhibition, ARG [7] [%] | %-inhibition of PKCδ [8] [%] | %-inhibition of MARK4 [9] [%] | %-inhibition of PAK6 [10] [%] | %-inhibition of MRCKβ [11] [%] | %-inhibition of MST3 [12] [%] | %-inhibition of KIT(T670I) [2, 13] [%] | %-inhibition of MARK3 ([3]; kinase MARK3, compound at 1 μM) [%]
CS(=O)(=O)CCNCc1ccc(-c2ccc3ncnc(Nc4ccc(OCc5cccc(F)c5)c(Cl)c4)c3c2)o1 [lapatinib] | -6 | 0 | 3.43 | 1.22 | 8 | -0.659 | 11 | -1.67 | 10 | 0.144 | -5 | -1.84 | – | –
CNC(=O)c1cc(Oc2ccc(NC(=O)Nc3ccc(Cl)c(C(F)(F)F)c3)c(F)c2)ccn1 [regorafenib] | -7 | – | – | 88 | 4.42 | -8 | 35 | 2.2 | -16 | -8 | -17 | -6.62 | 101 | -3.48
Cc1ccc(Nc2nccc(N(C)c3ccc4c(C)n(C)nc4c3)n2)cc1S(N)(=O)=O [pazopanib] | -4.7 | 68 | – | 15 | 1 | 0.255 | 67 | -3 | 9 | 5.54 | 1.15 | -4.48 | – | 4.45
CO[C@H]1C[C@@H]2CC[C@@H](C)[C@@](O)(O2)C(=O)C(=O)N2CCCC[C@H]2C(=O)O[C@H]([C@H](C)C[C@@H]2CC[C@@H](OCCO)[C@H](OC)C2)CC(=O)[C@H](C)/C=C(\C)[C@@H](O)[C@@H](OC)C(=O)[C@H](C)C[C@H](C)/C=C/C=C/C=C/1C [everolimus] | 29 | – | – | -4 | 7 | 3.78 | 1.07 | -10 | -27 | -1.22 | 0.688 | 0.288 | -2.56 | -4
CC(=O)Nc1cccc(-n2c(=O)n(C3CC3)c(=O)c3c(Nc4ccc(I)cc4F)n(C)c(=O)c(C)c32)c1 [trametinib] | -3.47 | – | – | -8.53 | 9 | 9 | -4 | -4.75 | -15 | 8 | -2.56 | 1.75 | -3 | -3.21
CO[C@H]1C[C@@H]2CC[C@@H](C)[C@@](O)(O2)C(=O)C(=O)N2CCCC[C@H]2C(=O)O[C@H]([C@H](C)C[C@@H]2CC[C@@H](OC(=O)C(C)(CO)CO)[C@H](OC)C2)CC(=O)[C@H](C)/C=C(\C)[C@@H](O)[C@@H](OC)C(=O)[C@H](C)C[C@H](C)/C=C/C=C/C=C/1C [temsirolimus] | -2 | – | – | -5.58 | 4.25 | 13 | -1.55 | -4 | -26 | -6.47 | -4 | -3.6 | -4.27 | -0.859
